Assay results: patent US20140163012A1, “PYRIDO-/AZEPINO-BENZOFURAN AND PYRIDO-/AZEPINO-BENZOTHIOPHENE MCH-1 ANTAGONISTS, METHODS OF MAKING, AND USE THEREOF” (Albany Molecular Research, Inc., priority 2012, published 2014)
Structures can show the parent of a compound that is named as a salt.

The compounds below were run against human MCH-1 receptor (Homo sapiens, UniProt Q99705) (assay: Binding assay for human melanin-concentrating hormone (MCH-1) receptor, radioligand displacement on CHO-K1 cell membranes). Conditions: not given.
Sequence of human MCH-1 receptor (Q99705 whole entry): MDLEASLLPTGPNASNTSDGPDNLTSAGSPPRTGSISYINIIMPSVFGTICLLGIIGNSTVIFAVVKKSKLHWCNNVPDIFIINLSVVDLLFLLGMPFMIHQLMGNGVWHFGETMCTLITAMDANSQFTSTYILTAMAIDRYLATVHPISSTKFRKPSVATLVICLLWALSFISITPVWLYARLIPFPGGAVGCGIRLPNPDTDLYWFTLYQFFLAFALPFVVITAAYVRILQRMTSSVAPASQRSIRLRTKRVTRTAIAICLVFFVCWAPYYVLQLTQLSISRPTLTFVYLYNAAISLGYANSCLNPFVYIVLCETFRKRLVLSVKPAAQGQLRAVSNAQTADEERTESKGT

| SMILES | Ki [nM] |
| --- | --- |
| CCN1CCc2c(sc3cc(-n4ccc(OCc5ccc(F)cn5)cc4=O)ccc23)C1 [Example 56, 1-(2-Ethyl-1,2,3,4-tetrahydrobenzothieno[2,3-c]pyridin-7-yl)-4-((5-fluoropyridin-2-yl)methoxy)pyridin-2(1H)-one hydrochloride] | 9.5 |
| CC(C)N1CCc2c(sc3cc(-n4ccc(OCc5ccc(F)cn5)cc4=O)ccc23)C1 [Example 57, 4-((5-Fluoropyridin-2-yl)methoxy)-1-(2-isopropyl-1,2,3,4-tetrahydrobenzothieno[2,3-c]pyridin-7-yl)pyridin-2(1H)-one hydrochloride] | 11 |
| CN1CCc2c(sc3cc(-n4ccc(OCc5ccc(F)cn5)cc4=O)ccc23)C1 [Example 58, 4-((5-Fluoropyridin-2-yl)methoxy)-1-(2-methyl-1,2,3,4-tetrahydrobenzothieno[2,3-c]pyridin-7-yl)pyridin-2(1H)-one hydrochloride] | 6.2 |
| O=c1cc(OCc2ccc(F)cn2)ccn1-c1ccc2c3c(sc2c1)CN(CCF)CC3 [Example 59, 1-(2-(2-Fluoroethyl)-1,2,3,4-tetrahydrobenzothieno[2,3-c]pyridin-7-yl)-4-((5-fluoropyridin-2-yl)methoxy)pyridin-2(1H)-one hydrochloride] | 36 |
| O=C1CN(CCc2ccc(F)cn2)CCN1c1ccc2c3c(sc2c1)CNCC3 [Example 60, 4-(2-(5-Fluoropyridin-2-yl)ethyl)-1-(1,2,3,4-tetrahydrobenzothieno[2,3-c]pyridin-7-yl)piperazin-2-one hydrochloride] | 118 |
| O=c1cc(OCc2ccc(F)cn2)cnn1-c1ccc2c3c(sc2c1)CNCC3 [Example 61, 5-((5-Fluoropyridin-2-yl)methoxy)-2-(1,2,3,4-tetrahydrobenzothieno[2,3-c]pyridin-7-yl)pyridazin-3(2H)-one] | 34 |
| Cc1ccc(COc2ccn(-c3ccc4c5c(sc4c3)CNCC5)c(=O)c2)cn1 [Example 62, 4-((6-Methylpyridin-3-yl)methoxy)-1-(1,2,3,4-tetrahydrobenzothieno[2,3-c]pyridin-7-yl)pyridin-2(1H)-one hydrochloride] | 103 |
| O=C1CN(CCc2ccc(Cl)cc2)CCN1c1ccc2c3c(sc2c1)CNCC3 [Example 63, 4-(4-Chlorophenethyl)-1-(1,2,3,4-tetrahydrobenzothieno[2,3-c]pyridin-7-yl)piperazin-2-one hydrochloride] | 33 |
| O=c1cc(OCc2ccc(C(F)(F)F)nc2)ccn1-c1ccc2c3c(sc2c1)CNCC3 [Example 64, 1-(1,2,3,4-Tetrahydrobenzothieno[2,3-c]pyridin-7-yl)-4-((6-(trifluoromethyl)pyridin-3-yl)methoxy)pyridin-2(1H)-one hydrochloride] | 48 |
| O=c1cc(OCc2ccc(F)cn2)ccn1-c1ccc2c3c(oc2c1)CCN(CCF)C3 [Example 72, 1-(2-(2-Fluoroethyl)-1,2,3,4-tetrahydrobenzofuro[3,2-c]pyridin-7-yl)-4-((5-fluoropyridin-2-yl)methoxy)pyridin-2(1H)-one hydrochloride] | 29 |
| O=c1cc(OCc2ccccc2)ccn1-c1ccc2c3c(oc2c1)CCN1CCCC31 (stereo not shown) [Example 73, 4-(Benzyloxy)-1-(1,2,3,5,6,11c-hexahydrobenzofuro[2,3-g]indolizin-9-yl)pyridin-2(1H)-one hydrochloride] | 5.5 |
| O=c1cc(OCc2ccccc2)ccn1-c1ccc2oc3c(c2c1)CNCC3 [Example 74, 4-(Benzyloxy)-1-(1,2,3,4-tetrahydrobenzofuro[3,2-c]pyridin-8-yl)pyridin-2(1H)-one hydrochloride] | 373 |
| O=c1cc(OCc2ccccc2)ccn1-c1ccc2oc3c(c2c1)CCNCC3 [Example 77, 4-(Benzyloxy)-1-(2,3,4,5-tetrahydro-1H-benzofuro[2,3-d]azepin-9-yl)pyridin-2(1H)-one hydrochloride] | 44 |
| O=c1cc(OCc2ccc(F)cn2)ccn1-c1ccc2oc3c(c2c1)CCNCC3 [Example 79, 4-((5-Fluoropyridin-2-yl)methoxy)-1-(2,3,4,5-tetrahydro-1H-benzofuro[2,3-d]azepin-9-yl)pyridin-2(1H)-one hydrochloride] | 78 |
| O=c1cc(OCc2ccc(F)cn2)ccn1-c1ccc2c3c(oc2c1)CCN1CCCC31 (stereo not shown) [Example 80, 4-((5-Fluoropyridin-2-yl)methoxy)-1-(1,2,3,5,6,11c-hexahydrobenzofuro[2,3-g]indolizin-9-yl)pyridin-2(1H)-one hydrochloride] | 8.3 |
| CC(C)N1CCCc2oc3cc(-n4ccc(OCc5cccc(C(F)(F)F)n5)cc4=O)ccc3c2C1 [Example 81, 1-(2-Isopropyl-2,3,4,5-tetrahydro-1H-benzofuro[3,2-c]azepin-8-yl)-4-((6-(trifluoromethyl)pyridin-2-yl)methoxy)pyridin-2(1H)-one hydrochloride] | 62 |
| CN1CCCc2oc3cc(-n4ccc(-c5ccc(C(F)(F)F)cc5)cc4=O)ccc3c2C1 [Example 82, 1-(2-Methyl-2,3,4,5-tetrahydro-1H-benzofuro[3,2-c]azepin-8-yl)-4-(4-(trifluoromethyl)phenyl)pyridin-2(1H)-one hydrochloride] | 8.2 |
| O=C1CN(CCc2ccc(F)cn2)CCN1c1ccc2c3c(oc2c1)CCCNC3 [Example 83, 4-(2-(5-Fluoropyridin-2-yl)ethyl)-1-(2,3,4,5-tetrahydro-1H-benzofuro[3,2-c]azepin-8-yl)piperazin-2-one hydrochloride] | 52 |
| CN1CCc2oc3cc(-n4ccc(OCc5ccc(C(F)(F)F)nc5)cc4=O)ccc3c2CC1 [Example 84, 1-(3-Methyl-2,3,4,5-tetrahydro-1H-benzofuro[2,3-d]azepin-8-yl)-4-((6-(trifluoromethyl)pyridin-3-yl)methoxy)pyridin-2(1H)-one hydrochloride] | 29 |
| Cc1ccc(COc2ccn(-c3ccc4c5c(oc4c3)CCCN(C)C5)c(=O)c2)cn1 [Example 85, 1-(2-Methyl-2,3,4,5-tetrahydro-1H-benzofuro[3,2-c]azepin-8-yl)-4-((6-methylpyridin-3-yl)methoxy)pyridin-2(1H)-one hydrochloride] | 116 |
| CN1CCCc2oc3cc(-n4ccc(OCc5ccc(C(F)(F)F)nc5)cc4=O)ccc3c2C1 [Example 86, 1-(2-Methyl-2,3,4,5-tetrahydro-1H-benzofuro[3,2-c]azepin-8-yl)-4-((6-(trifluoromethyl)pyridin-3-yl)methoxy)pyridin-2(1H)-one hydrochloride] | 53 |
| O=C1CN(CCc2ccc(Cl)cc2)CCN1c1ccc2c3c(oc2c1)CCNC3 [Example 87, 4-(4-Chlorophenethyl)-1-(1,2,3,4-tetrahydrobenzofuro[3,2-c]pyridin-7-yl)piperazin-2-one hydrochloride] | 58 |
| O=C1CN(CCc2ccc(Cl)cc2)CCN1c1ccc2c3c(oc2c1)CCCNC3 [Example 89, 4-(4-Chlorophenethyl)-1-(2,3,4,5-tetrahydro-1H-benzofuro[3,2-c]azepin-8-yl)piperazin-2-one hydrochloride] | 17 |
| O=C1CN(CCc2ccc(Cl)cn2)CCN1c1ccc2c3c(oc2c1)CCCNC3 [Example 90, 4-(2-(5-Chloropyridin-2-yl)ethyl)-1-(2,3,4,5-tetrahydro-1H-benzofuro[3,2-c]azepin-8-yl)piperazin-2-one hydrochloride] | 19 |
| O=c1cc(OCc2ccccc2)ccn1-c1ccc2c3c(oc2c1)CCN(CCF)C3 [Example 92, 4-(Benzyloxy)-1-(2-(2-fluoroethyl)-1,2,3,4-tetrahydrobenzofuro[3,2-c]pyridin-7-yl)pyridin-2(1H)-one hydrochloride] | 25 |
| CN1CCCc2oc3cc(N4CCN(CCc5ccc(Cl)cc5)CC4=O)ccc3c2C1 [Example 93, 4-(4-Chlorophenethyl)-1-(2-methyl-2,3,4,5-tetrahydro-1H-benzofuro[3,2-c]azepin-8-yl)piperazin-2-one hydrochloride] | 69 |
| CN1CCCc2oc3cc(N4CCN(CCc5ccc(Cl)cn5)CC4=O)ccc3c2C1 [Example 94, 4-(2-(5-Chloropyridin-2-yl)ethyl)-1-(2-methyl-2,3,4,5-tetrahydro-1H-benzofuro[3,2-c]azepin-8-yl)piperazin-2-one hydrochloride] | 103 |
| CC(C)N1CCCc2oc3cc(N4CCN(CCc5ccc(Cl)cc5)CC4=O)ccc3c2C1 [Example 96, 4-(4-Chlorophenethyl)-1-(2-isopropyl-2,3,4,5-tetrahydro-1H-benzofuro[3,2-c]azepin-8-yl)piperazin-2-one hydrochloride] | 150 |
| O=C1CN(CCc2ccc(Cl)cn2)CCN1c1ccc2c3c(oc2c1)CCNCC3 [Example 98, 4-(2-(5-Chloropyridin-2-yl)ethyl)-1-(2,3,4,5-tetrahydro-1H-benzofuro[2,3-d]azepin-8-yl)piperazin-2-one hydrochloride] | 153 |

Same assay, conditions: read-out: MCH1 % inhibition @ 1 uM

| SMILES | inhibition at 1 µM [%] |
| --- | --- |
| O=c1cc(OCc2ccc(F)cn2)ccn1-c1ccc2oc3c(c2c1)CNCCC3 [Example 75, 4-((5-Fluoropyridin-2-yl)methoxy)-1-(2,3,4,5-tetrahydro-1H-benzofuro[3,2-c]azepin-9-yl)pyridin-2(1H)-one hydrochloride] | 34 |
| O=c1cc(OCc2ccc(F)cn2)ccn1-c1ccc2oc3c(c2c1)CNCC3 [Example 76, 4-((5-Fluoropyridin-2-yl)methoxy)-1-(1,2,3,4-tetrahydrobenzofuro[3,2-c]pyridin-8-yl)pyridin-2(1H)-one hydrochloride] | 35 |
| O=c1cc(OCc2ccccc2)ccn1-c1ccc2oc3c(c2c1)CNCCC3 [Example 78, 4-(Benzyloxy)-1-(2,3,4,5-tetrahydro-1H-benzofuro[3,2-c]azepin-9-yl)pyridin-2(1H)-one hydrochloride] | 35 |
| CN1CCCc2oc3cc(N4CCN(CCc5ccc(F)cn5)CC4=O)ccc3c2C1 [Example 95, 4-(2-(5-Fluoropyridin-2-yl)ethyl)-1-(2-methyl-2,3,4,5-tetrahydro-1H-benzofuro[3,2-c]azepin-8-yl)piperazin-2-one hydrochloride] | 62 |
| CC(C)N1CCCc2oc3cc(N4CCN(CCc5ccc(Cl)cn5)CC4=O)ccc3c2C1 [Example 97, 4-(2-(5-Chloropyridin-2-yl)ethyl)-1-(2-isopropyl-2,3,4,5-tetrahydro-1H-benzofuro[3,2-c]azepin-8-yl)piperazin-2-one hydrochloride] | 66 |
